Experimental data from PubChem BioAssay AID1645864 (Buhrlage Lab, Dana-Farber Cancer Institute and Novartis …, 2021).
Active and inactive are the calls of the source.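 Rule for the calls: active = maximal inhibition of USP17 at or above 30% in the confirmation dose-response, a value not among the printed readouts; inactive = the rest.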

Molecular target: Ubiquitin carboxyl-terminal hydrolase 17-like protein 5 (Homo sapiens) (UniProt A8MUK1)
Test: ubiquitin-specific protease 17 inhibitors, concentration series, biochemical, verification of primary actives (AID 1645864)
Conditions: purified USP17, ubiquitin-rhodamine cleavage fluorescence, 3 h

Ubiquitin carboxyl-terminal hydrolase 17-like protein 5 (Homo sapiens), sequence (A8MUK1 whole entry, looked up): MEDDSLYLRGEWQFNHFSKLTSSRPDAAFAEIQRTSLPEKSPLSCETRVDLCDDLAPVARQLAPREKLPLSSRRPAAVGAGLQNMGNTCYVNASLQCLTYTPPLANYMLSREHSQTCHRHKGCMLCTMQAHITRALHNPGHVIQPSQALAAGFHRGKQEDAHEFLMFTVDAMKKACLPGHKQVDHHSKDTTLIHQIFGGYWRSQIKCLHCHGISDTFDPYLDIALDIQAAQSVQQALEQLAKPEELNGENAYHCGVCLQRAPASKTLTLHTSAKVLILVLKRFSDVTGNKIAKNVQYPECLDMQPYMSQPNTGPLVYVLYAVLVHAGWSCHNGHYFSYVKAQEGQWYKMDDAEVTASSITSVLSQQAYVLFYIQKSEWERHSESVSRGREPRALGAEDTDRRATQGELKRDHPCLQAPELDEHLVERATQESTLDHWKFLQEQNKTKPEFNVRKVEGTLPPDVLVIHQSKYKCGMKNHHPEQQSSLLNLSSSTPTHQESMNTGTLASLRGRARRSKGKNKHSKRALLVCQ

**Q.** Fc1ccc(CSc2nnc(-c3ccccn3)n2Cc2ccco2)cc1 was tested. Which IC50 did it give?
**A.** > 50 µM (inactive)

**Q.** Cc1c(Cl)cccc1NC(=O)Cn1ccc2ccccc2c1=O was tested. Which IC50 did it give?
**A.** 2.23 µM

**Q.** How did the IC50 turn out when COc1ccc(NC(=O)CSc2nnc(Cc3cccc4ccccc34)n2C)cc1 was run?
**A.** > 50 µM (inactive)

**Q.** With CCOc1ccc(C(=O)Cn2c(=O)n(CC3CCCO3)c(=O)c3cc(OC)c(OC)cc32)cc1Cl (stereo not given) as the compound, how does the IC50 read?
**A.** 17.7 µM

**Q.** Which IC50 does the source give for N#Cc1ccc(NC(=O)Nc2cccn(Cc3ccccc3F)c2=O)cc1 here?
**A.** 6.33 µM

**Q.** O=C1c2ccccc2NC2(C(=O)Nc3ccc(Br)cc32)N1c1ccccc1 (stereo not given) was tested. Which IC50 did it give?
**A.** > 50 µM (inactive)

**Q.** Which IC50 does the source give for COc1ccc(NC(=O)C2[C@@H]3C(=O)N(C4CCCCC4)C(=O)[C@@H]3[C@H]3c4ccccc4C=CN23)cc1 (stereo not given in full) here?
**A.** 46.9 µM

**Q.** How did the IC50 turn out when O=C(Cn1c(=O)nc(-c2ccccc2)c2ccccc21)NCc1ccc2c(c1)OCO2 was run?
**A.** 27.8 µM

**Q.** For O=C(CNC(=O)c1cc2ccccc2o1)Nc1ccc2c(c1)OCCO2, which IC50 is on record?
**A.** 46 µM

**Q.** For CCOc1ccc(NC(=O)Cn2c(=O)n(CC(=O)NCc3ccc(C)cc3)c(=O)c3sccc32)cc1, which IC50 is on record?
**A.** 3.97 µM

**Q.** How did the IC50 turn out when O=C(COC(=O)Cn1cnc2ccccc21)Nc1ccc2c(c1)OCCO2 was run?
**A.** > 50 µM (inactive)

**Q.** How did the IC50 turn out when O=C(Nc1cccc(Cl)c1)N1CCN(c2cc(C(F)(F)F)ccn2)CC1 was run?
**A.** 12.3 µM

**Q.** How did the IC50 turn out when Cc1ccc2[nH]c(=O)c(CN(Cc3cccnc3)C(=O)c3cccc(Cl)c3)cc2c1 was run?
**A.** > 50 µM (inactive)

**Q.** With COc1ccc(N(CC(=O)NC2CCCCC2)C(=O)c2ccc(-c3ccccc3)[nH]2)cc1OC as the compound, how does the IC50 read?
**A.** 3.04 µM

**Q.** O=C(c1cnccn1)N1CCc2[nH]c3ccc(F)cc3c2C1 was tested. Which IC50 did it give?
**A.** > 50 µM (inactive)

**Q.** With CCN(c1ccc(NC(=O)CSc2nnc(-c3ccccc3)n2-c2ccc(OC)c(OC)c2)cc1)C(C)C as the compound, how does the IC50 read?
**A.** 5.06 µM

**Q.** With C=C1CCC2[C@](C)(CCC[C@]2(C)C(=O)OC)[C@H]1CCc1ccoc1C[N+](C)(C)Cc1ccccc1 (stereo not given in full) as the compound, how does the IC50 read?
**A.** > 50 µM (inactive)

**Q.** Which IC50 does the source give for Cc1nc(-c2ccc3c(c2)nnn3CCN2CCOCC2)no1 here?
**A.** > 50 µM (inactive)

**Q.** Which IC50 does the source give for Cc1c(C(=O)Nc2ccc(-c3nnc4n3CCCCC4)cc2)oc2c1ccc1ccccc12 here?
**A.** > 50 µM (inactive)

**Q.** How did the IC50 turn out when O=C(COc1ccc2ccccc2c1)Nc1cccc2ccccc12 was run?
**A.** 15.8 µM

**Q.** How did the IC50 turn out when Fc1ccc(-c2noc(-c3nnc(NCc4cccnc4)c4ccccc34)n2)cc1 was run?
**A.** 2.59 µM

**Q.** With O=C(NCCc1ccco1)c1ccc(N2CCOc3ccccc32)s1 as the compound, how does the IC50 read?
**A.** 15.4 µM

**Q.** CCOC(=O)c1sc2nc(CC(=O)OC)nc(NCc3ccco3)c2c1C was tested. Which IC50 did it give?
**A.** > 50 µM (inactive)

**Q.** With CC1OC(CC(=O)O)CC23OC12C(=O)c1c(O)cccc1C3=O (stereo not given) as the compound, how does the IC50 read?
**A.** 1.33 µM

**Q.** For Cc1ccc2cccc(OCc3nnc(SCC(=O)c4ccc(Cl)cc4)n3C)c2n1, which IC50 is on record?
**A.** 2.65 µM

**Q.** With COC(=O)c1ccc(C(=O)Nc2cc3ccccc3cc2NC(=O)c2ccc(C(=O)OC)cc2)cc1 as the compound, how does the IC50 read?
**A.** 0.68 µM

**Q.** For Cc1c(C(=O)NCc2cccc(Br)c2)oc2c1-c1[nH]ncc1CC2, which IC50 is on record?
**A.** 29.1 µM

**Q.** With CCCCC/C=C/C=C/C(=O)OC1C(O)CC(c2ccc3c(c2O)C(=O)c2c(O)cc4cc(C)cc(O)c4c2C3=O)OC1C (stereo not given) as the compound, how does the IC50 read?
**A.** 0.394 µM

**Q.** With Cc1ccccc1OCCSc1nc2ccccc2n1CC(=O)NC1CC1 as the compound, how does the IC50 read?
**A.** 22.8 µM

**Q.** How did the IC50 turn out when O=C(NCc1ccccc1Cl)c1ccc(-c2nnc(-c3ccccc3)o2)cc1 was run?
**A.** 2.5 µM

**Q.** How did the IC50 turn out when Cn1cc(-c2noc(Cc3cccc(C(F)(F)F)c3)n2)ccc1=O was run?
**A.** > 50 µM (inactive)

**Q.** Which IC50 does the source give for O=C(COc1ccc2c(-c3ccccc3)cc(=O)oc2c1)Nc1cccnc1 here?
**A.** 1.7 µM

**Q.** How did the IC50 turn out when O=C(NC1CCN(Cc2ccccc2)CC1)c1[nH]nc2c1CCc1ccccc1-2 was run?
**A.** > 50 µM (inactive)

**Q.** CC(C)(C)C(=O)C1C2C(=O)N(Cc3ccccc3)C(=O)C2C2c3ccccc3C=CN12 (stereo not given) was tested. Which IC50 did it give?
**A.** > 50 µM (inactive)

**Q.** Which IC50 does the source give for Cn1ccnc1CN1C[C@H]2CCN(c3ncccn3)C[C@H]2C1 here?
**A.** > 50 µM (inactive)

**Q.** How did the IC50 turn out when O=C(CN1C(=O)C2CCCC2=Nc2ccccc21)Nc1cc(F)ccc1F (stereo not given) was run?
**A.** 13.9 µM

**Q.** How did the IC50 turn out when Cc1ccc(NC(=O)c2cnc(N3CCOCC3)nc2)cc1F was run?
**A.** 28.6 µM

**Q.** Cc1ccc(NC(=O)c2nnn(-c3ccccc3)n2)cc1F was tested. Which IC50 did it give?
**A.** > 50 µM (inactive)

**Q.** With O=C(Cn1nc2c3c4c(sc3ncn2c1=O)CCCCC4)Nc1ccc(Cl)cc1F as the compound, how does the IC50 read?
**A.** 2.08 µM

**Q.** With O=C(Nc1ccc2c(c1)OCCO2)c1cc(CN2CCOCC2)on1 as the compound, how does the IC50 read?
**A.** > 50 µM (inactive)

**Q.** For CCC(=O)Nc1ccc2c(c1)nc(CSc1nccc(C)n1)n2CC, which IC50 is on record?
**A.** > 50 µM (inactive)

**Q.** CC(=O)N1CCc2cc(S(=O)(=O)NCc3ccc(C)cc3)ccc21 was tested. Which IC50 did it give?
**A.** > 50 µM (inactive)

**Q.** Which IC50 does the source give for Cc1nc(Nc2ncc(C)s2)cc(C2CN(C(=O)Cc3ccccc3)CCO2)n1 (stereo not given) here?
**A.** > 50 µM (inactive)

**Q.** Which IC50 does the source give for O=C(COc1ccccc1-c1nnc(-c2ccccc2)o1)Nc1ccc(F)cc1F here?
**A.** 1.87 µM

**Q.** CCOc1ccc(NC(=O)Cn2cc(C(=O)c3ccc(Cl)cc3)c(=O)c3cc(OC)ccc32)cc1 was tested. Which IC50 did it give?
**A.** 2.74 µM

**Q.** For O=C(Nc1cccc(F)c1)C1CCCN(S(=O)(=O)N2CCCCCC2)C1 (stereo not given), which IC50 is on record?
**A.** 39.9 µM

**Q.** O=C(Nc1ccc(Cl)cc1F)c1cc(-c2ccccn2)n[nH]1 was tested. Which IC50 did it give?
**A.** 0.323 µM

**Q.** Which IC50 does the source give for COc1ccc(C)cc1NC(=O)CSc1nc(C)nc2c1oc1ccccc12 here?
**A.** 22.3 µM

**Q.** For COc1cc(/C=C/C(=O)OCC(=O)Nc2ccc([N+](=O)[O-])cc2OC)ccc1O, which IC50 is on record?
**A.** 19.9 µM

**Q.** With Cn1c2ccccc2c(=O)c2c(=O)n(Cc3ccccc3)c(-c3ccco3)nc21 as the compound, how does the IC50 read?
**A.** 1.55 µM
